Experimental data: PubChem BioAssay AID328 (DTP/NCI, 2004)
Values joined by “and” are separate entries in the source; they are usually repeats but may differ in a detail not shown here. Equal entries are not always repeated. Toxic doses and inconclusive results are not listed.

System: BDF1 mice, P388 leukemia ip, median survival T/C
Experiment: NCI In Vivo Anticancer Drug Screen. Data for tumor model P388 Leukemia (intraperitoneal) in B6D2F1 (BDF1) mice
Conditions: endpoint: median survival time, higher = longer survival
Procedure, shortened: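 Reported as T/C, where T is the survival measurement in dosed animals and C the same measurement in vehicle controls.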

[1] = dose: 50.0 mg/kg/injection, schedule: Q01DX009 (ip), vehicle: saline
[2] = dose: 100.0 mg/kg/injection, schedule: Q01DX009 (ip), vehicle: saline
[3] = dose: 100.0 mg/kg/injection, schedule: Q04DX003 (ip), vehicle: saline with Tween-80
[4] = dose: 200.0 mg/kg/injection, schedule: Q04DX003 (ip), vehicle: saline with Tween-80
[5] = dose: 50.0 mg/kg/injection, schedule: Q01DX009 (ip), vehicle: saline with Tween-80
[6] = dose: 100.0 mg/kg/injection, schedule: Q01DX009 (ip), vehicle: saline with Tween-80
[7] = dose: 200.0 mg/kg/injection, schedule: Q01DX009 (ip), vehicle: saline with Tween-80
[8] = dose: 200.0 mg/kg/injection, schedule: Q01DX001 (ip), vehicle: saline with Tween-80
[9] = dose: 100.0 mg/kg/injection, schedule: Q04DX003 (ip), vehicle: saline
[10] = dose: 100.0 mg/kg/injection, schedule: Q01DX009 (ip), vehicle: Klucel (hydroxypropylcellulose) (HPC)

CCCCCCCCCCCCCC[n+]1ccccc1
T/C (dose: 16.0 micrograms/kg/injection, schedule: Q01DX009 (ip), vehicle: saline with Tween-80): 87 % of control | T/C (dose: 32.0 micrograms/kg/injection, schedule: Q01DX009 (ip), vehicle: saline with Tween-80): 100 % of control | T/C (dose: 62.5 micrograms/kg/injection, schedule: Q01DX009 (ip), vehicle: saline): 113 % of control | T/C (dose: 62.5 micrograms/kg/injection, schedule: Q01DX010 (ip), vehicle: saline): 115 % of control | T/C (dose: 125.0 micrograms/kg/injection, schedule: Q01DX009 (ip), vehicle: saline): 122 % of control | T/C (dose: 250.0 micrograms/kg/injection, schedule: Q01DX010 (ip), vehicle: saline): 110 % of control

OC1CCC(O)C1(Cl)Cl (stereo unspecified)
T/C (dose: 25.0 mg/kg/injection, schedule: Q01DX009 (ip), vehicle: saline): 109 % of control | T/C [1]: 108 % of control | T/C [2]: 98 % of control

[Se]c1ccnc([Se])n1
T/C (dose: 50.0 mg/kg/injection, schedule: Q04DX003 (ip), vehicle: saline with Tween-80): 100 % of control | T/C [3]: 90 % of control | T/C [4]: 100 % of control

O=C1C(N2CCN(CCO)CC2)=C(N2CC2)C(=O)C(N2CCN(CCO)CC2)=C1N1CC1
T/C (dose: 0.25 mg/kg/injection, schedule: Q01DX009 (ip), vehicle: saline): 241 % of control | T/C (dose: 0.5 mg/kg/injection, schedule: Q01DX009 (ip), vehicle: saline): 241 % of control and 249 % of control | T/C (dose: 1.0 mg/kg/injection, schedule: Q01DX009 (ip), vehicle: saline): 243 % of control | T/C (dose: 2.0 mg/kg/injection, schedule: Q01DX009 (ip), vehicle: saline): 116 % of control

C=C(C)C(=O)NCC(=O)NC(CC(C)C)C(=O)Oc1ccc([N+](=O)[O-])cc1 (stereo unspecified)
T/C (dose: 25.0 mg/kg/injection, schedule: Q01DX009 (ip), vehicle: saline with Tween-80): 97 % of control | T/C [5]: 97 % of control | T/C [6]: 90 % of control

O=c1c2ccccc2nc(-c2ccccc2Cl)n1/N=C/c1cccc([N+](=O)[O-])c1
T/C [6]: 93 % of control | T/C [7]: 100 % of control

CCCOc1cc([N+](=O)[O-])cc([N+](=O)[O-])c1
T/C (dose: 100.0 mg/kg/injection, schedule: Q01DX001 (ip), vehicle: saline with Tween-80): 104 % of control | T/C [8]: 94 % of control

COc1cc2cc3c4ccccc4cc[n+]3c(C)c2cc1OC (tested in a mixture with another compound)
T/C (dose: 5.0 mg/kg/injection, schedule: Q04DX003 (ip), vehicle: saline): 101 % of control | T/C (dose: 20.0 mg/kg/injection, schedule: Q01DX009 (ip), vehicle: saline): 109 % of control | T/C (dose: 40.0 mg/kg/injection, schedule: Q01DX009 (ip), vehicle: saline): 104 % of control | T/C (dose: 80.0 mg/kg/injection, schedule: Q04DX003 (ip), vehicle: saline): 109 % of control

Cc1ccccc1NC(=O)C1CCC(C)(C(=O)O)C1(C)C (stereo unspecified)
T/C [3]: 90 % of control | T/C [4]: 100 % of control | T/C (dose: 400.0 mg/kg/injection, schedule: Q04DX003 (ip), vehicle: saline with Tween-80): 90 % of control

CSC(N)=Nc1cccc2c1CCCC2
T/C (dose: 50.0 mg/kg/injection, schedule: Q04DX003 (ip), vehicle: saline): 108 % of control | T/C [9]: 108 % of control

Cc1ccc2c(Br)cc(Br)c(O)c2n1
T/C (dose: 10.0 mg/kg/injection, schedule: Q01DX009 (ip), vehicle: Klucel (hydroxypropylcellulose) (HPC)): 115 % of control | T/C (dose: 20.0 mg/kg/injection, schedule: Q01DX009 (ip), vehicle: Klucel (hydroxypropylcellulose) (HPC)): 115 % of control | T/C (dose: 40.0 mg/kg/injection, schedule: Q01DX009 (ip), vehicle: Klucel (hydroxypropylcellulose) (HPC)): 115 % of control | T/C [10]: 100 % of control

CN1C(=O)NC2C(CO)OC1C2O (stereo unspecified)
T/C (dose: 100.0 mg/kg/injection, schedule: Q01DX001 (ip), vehicle: saline): 104 % of control | T/C (dose: 200.0 mg/kg/injection, schedule: Q01DX001 (ip), vehicle: saline): 104 % of control | T/C (dose: 400.0 mg/kg/injection, schedule: Q01DX001 (ip), vehicle: saline): 100 % of control

OCc1cncc(F)c1
T/C [1]: 103 % of control | T/C [2]: 103 % of control | T/C (dose: 200.0 mg/kg/injection, schedule: Q01DX009 (ip), vehicle: saline): 103 % of control

CNc1nc(N)c(N=O)c(Nc2ccc(Br)cc2)n1
T/C (dose: 62.5 mg/kg/injection, schedule: Q01DX010 (ip), vehicle: carboxymethylcellulose (CMC)): 105 % of control | T/C (dose: 125.0 mg/kg/injection, schedule: Q01DX010 (ip), vehicle: carboxymethylcellulose (CMC)): 110 % of control | T/C (dose: 250.0 mg/kg/injection, schedule: Q01DX010 (ip), vehicle: carboxymethylcellulose (CMC)): 100 % of control | T/C (dose: 500.0 mg/kg/injection, schedule: Q01DX010 (ip), vehicle: carboxymethylcellulose (CMC)): 100 % of control

CC/C(=C\c1cccc([N+](=O)[O-])c1)C(=O)O
T/C [10]: 100 % of control | T/C (dose: 200.0 mg/kg/injection, schedule: Q01DX009 (ip), vehicle: Klucel (hydroxypropylcellulose) (HPC)): 100 % of control | T/C (dose: 400.0 mg/kg/injection, schedule: Q01DX009 (ip), vehicle: Klucel (hydroxypropylcellulose) (HPC)): 109 % of control

CC(C)C(O)(C(=O)OCC1=CC[N+]2([O-])CCC(O)C12)C(C)O (stereo unspecified)
T/C (dose: 200.0 mg/kg/injection, schedule: Q01DX006 (ip), vehicle: water): 110 % of control | T/C (dose: 800.0 mg/kg/injection, schedule: Q01DX006 (ip), vehicle: water): 100 % of control | T/C (dose: 1600.0 mg/kg/injection, schedule: Q01DX006 (ip), vehicle: water): 94 % of control

CCCCC(=O)NN(Cn1c(=S)sc2ccccc21)Cn1c(=S)sc2ccccc21
T/C (dose: 12.5 mg/kg/injection, schedule: Q01DX009 (ip), vehicle: Klucel (hydroxypropylcellulose) (HPC)): 109 % of control | T/C (dose: 25.0 mg/kg/injection, schedule: Q01DX009 (ip), vehicle: Klucel (hydroxypropylcellulose) (HPC)): 109 % of control | T/C (dose: 50.0 mg/kg/injection, schedule: Q01DX009 (ip), vehicle: Klucel (hydroxypropylcellulose) (HPC)): 272 % of control

O=C/C=C/Nc1ccccc1
T/C [6]: 122 % of control | T/C [7]: 109 % of control | T/C (dose: 400.0 mg/kg/injection, schedule: Q01DX009 (ip), vehicle: saline with Tween-80): 90 % of control

O=Cc1c2ccc(Cl)cc2nc2cc(Cl)ccc12
T/C [8]: 91 % of control

CSc1nc(Cl)c(Cl)c(C(F)(F)F)n1
T/C (dose: 6.25 mg/kg/injection, schedule: Q01DX005 (ip), vehicle: saline): 110 % of control | T/C (dose: 12.5 mg/kg/injection, schedule: Q01DX005 (ip), vehicle: saline): 109 % of control | T/C (dose: 25.0 mg/kg/injection, schedule: Q01DX005 (ip), vehicle: saline): 115 % of control

CCOC(=O)C1CC=CCC1C(=O)OCC (stereo unspecified)
T/C [9]: 118 % of control | T/C (dose: 200.0 mg/kg/injection, schedule: Q04DX003 (ip), vehicle: saline): 118 % of control | T/C (dose: 400.0 mg/kg/injection, schedule: Q04DX003 (ip), vehicle: saline): 109 % of control

O=[N+]([O-])c1ccc(NCCO)c([N+](=O)[O-])c1
T/C [5]: 101 % of control | T/C [6]: 107 % of control | T/C [7]: 113 % of control

C[N+]1(C)N=C([O-])N(c2ccccc2C(F)(F)F)C1=O
T/C [5]: 87 % of control | T/C [6]: 92 % of control

Cc1onc(-c2ccccc2)c1NC(=O)OCc1ccc(-c2cc(C(F)(F)F)cc(C(F)(F)F)c2)o1
T/C [5]: 97 % of control | T/C [6]: 99 % of control | T/C [7]: 99 % of control

O=C(/C=C/c1ccc(OCc2ccccc2)cc1)c1ccc(Br)cc1
T/C [5]: 91 % of control | T/C [6]: 86 % of control | T/C [7]: 87 % of control
